Data on twelve molecules can be found in article PMC8491162, “Targeting the JAK/STAT Pathway: A Combined Ligand- and Target-Based Approach” (Journal of Chemical Information and Modeling, 2021).

Usually IC50 stands for the concentration that inhibits the measured activity by half.

Molecules are shown by their SMILES. Counter-ions that a name gives are not always drawn. Like-named read-outs stand apart in the source and are kept apart here. A value given as a limit tells only on which side of the number the result lay.

Data set [1] addresses T1, JAK2 (Homo sapiens, UniProt O60674).
T1 construct: purchased BPS Bioscience
The data set is described as follows: JAK2 activity assay (JAK2 assay kit, BPS Bioscience; Kinase Glo Max luminescence). The format is biochemical. Here is the method: According to the manufacturer’s instructions, the assay was performed in a white 96-well plate, in a total volume of 50 μL, adding a 5× kinase assay buffer, ATP (500 μM), protein tyrosine kinase substrate (10 mg/mL), water, tested molecules diluted in 0.1% DMSO solution, and JAK2 enzyme (2.5 ng/μL).
After 15 min of incubation at room temperature, the luminescence was measured by EnSpire Multimode Plate Reader (Perkin Elmer). All measurements were performed in triplicates for each compound, and the concentration range tested was 0.1–10 000 nM.
A general note: In Kinase-Glo more light means more ATP remaining.

The test system of the next data set is SH-SY5Y cells. The data set is described as follows: MTT cell viability assay. The format is cell-based, Human. The note with it: 100 μM, after 5 or 24 h, vs vehicle control. As for the experimental part: Human SH-SY5Y neuroblastoma cells purchased from ICLC-IST (Genoa, Italy), were cultured in Dulbecco’s modified Eagle’s medium (DMEM), supplemented with 10% (v/v) fetal bovine serum (FBS), 100 units/mL penicillin, 100 μg/mL streptomycin, and 2 mM glutamine. Cells were incubated at 37 °C in a humidified atmosphere containing 5% CO2 and were allowed to reach 80% confluence before starting treatments. All reagents employed for cell culture were purchased from Lonza (Milan, Italy).
Drugs effects on cell viability were measured using the MTT [3-(4,5-dimethylthiazol-2-yl)-2,5-diphenyltetrazolium bromide] assay.[40] All reagents were purchased from Sigma-Aldrich (Milan, Italy) unless otherwise indicated. Briefly, cells were plated on 24-well plates at a density of 3 × 10^4 cells/well and were grown to reach 80% confluence. Cells were treated with vehicle (DMEM containing 0.1% dimethyl sulfoxide (DMSO)) or drugs dissolved in vehicle at the final concentrations of 1, 10, or 100 μM. After 5 or 24 h, the culture medium was removed and replaced with fresh DMEM containing the MTT solution (0.5 mg/mL) and cells were incubated in the dark for 3 h at 37 °C. […] The optical densities (ODs) were then recorded using a microplate spectrophotometer (GENios Tecan, Austria) at 590 nm. Results were expressed as a percentage of OD values of drug-treated cell cultures compared to vehicle-treated ones.
Background: Tetrazolium dyes change colour on reduction, which living cells bring about.

The target in data set [2] is T1, JAK2. The arrangement: method as in earlier work. The note with it: Figure 13; read-out: IC50 of commercially available JAK2 inhibitors; cited from earlier work.
A short description of data set [3]: Solubility for in vitro testing. The note with it: reason for not testing in vitro. The format is physicochemical.
Where [4] appears, read: 95% confidence limits in brackets, triplicates, read-out: IC50 in the enzymatic assay for JAK2 inhibition.
The mark [5] stands for this setting: as quoted in abstract and conclusions, read-out: IC50 against JAK2.

T1 sequence (O60674 whole entry): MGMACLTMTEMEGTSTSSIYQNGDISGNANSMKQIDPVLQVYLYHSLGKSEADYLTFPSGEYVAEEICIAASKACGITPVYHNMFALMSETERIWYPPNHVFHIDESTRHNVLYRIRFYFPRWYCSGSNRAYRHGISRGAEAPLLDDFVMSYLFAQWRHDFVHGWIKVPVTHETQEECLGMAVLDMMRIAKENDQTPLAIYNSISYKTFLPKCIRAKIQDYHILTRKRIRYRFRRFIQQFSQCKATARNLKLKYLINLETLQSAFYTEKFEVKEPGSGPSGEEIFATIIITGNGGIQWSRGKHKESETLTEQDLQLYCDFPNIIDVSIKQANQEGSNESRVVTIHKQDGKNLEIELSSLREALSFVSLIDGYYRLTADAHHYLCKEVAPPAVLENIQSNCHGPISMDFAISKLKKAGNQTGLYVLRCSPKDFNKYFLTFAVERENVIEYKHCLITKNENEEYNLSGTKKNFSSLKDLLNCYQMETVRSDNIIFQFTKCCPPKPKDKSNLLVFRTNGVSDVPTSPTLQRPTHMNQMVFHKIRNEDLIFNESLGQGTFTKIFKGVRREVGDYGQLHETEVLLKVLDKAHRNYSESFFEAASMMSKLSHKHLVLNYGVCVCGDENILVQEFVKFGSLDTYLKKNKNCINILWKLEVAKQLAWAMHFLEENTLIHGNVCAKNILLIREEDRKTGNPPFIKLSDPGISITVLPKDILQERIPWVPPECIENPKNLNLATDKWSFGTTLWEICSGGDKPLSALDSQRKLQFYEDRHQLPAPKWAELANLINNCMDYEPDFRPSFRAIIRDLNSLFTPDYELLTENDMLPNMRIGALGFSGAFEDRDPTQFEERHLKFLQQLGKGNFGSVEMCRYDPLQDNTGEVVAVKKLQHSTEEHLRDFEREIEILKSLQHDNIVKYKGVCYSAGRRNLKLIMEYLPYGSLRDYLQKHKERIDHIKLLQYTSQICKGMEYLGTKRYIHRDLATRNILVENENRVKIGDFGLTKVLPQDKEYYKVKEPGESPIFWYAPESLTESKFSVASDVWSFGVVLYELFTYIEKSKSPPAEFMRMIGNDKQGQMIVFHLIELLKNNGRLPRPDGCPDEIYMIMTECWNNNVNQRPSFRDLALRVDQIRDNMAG

Turning to `COc1cccc(C2C(C#N)=C(N)Oc3[nH]nc(C)c32)c1` (stereo not shown) [Compound 3], the IC50 at JAK2 [1] (setting [4]) is > 10000 nM.
Consider `COC(=O)C1=C(C)NC(C)=C(C(=O)OCCN2CCN(C(=O)c3ccco3)CC2)C1c1cccc([N+](=O)[O-])c1` (stereo not shown) [Compound 8], for which, in the data set on SH-SY5Y cells, the “Cell viability (MTT)” value was “significant decrease”. Further, at JAK2 [1] (setting [4]), the IC50 is > 10000 nM.
`C[C@H](NC(=O)/C(C#N)=C/c1cccc(Br)n1)c1ccccc1` [WP1066]: on JAK2 [2], the IC50 is 2300 nM.
Regarding `CC(CCc1ccccn1)(CCc1ccccn1)C(=O)c1ccccc1` [NSC 42834], the IC50 at JAK2 [2] was 15000 nM.
In the case of `CC(=O)Nc1cc(Oc2ccc3c(nc(Nc4ccc(F)cc4F)n3C)c2C)ccn1` [CHZ868], the IC50 on JAK2 [2] is 170 nM.
`CCCC1(CCC)CCC2(CCN(CCCN(CC)CC)C2)CC1` [Atiprimod dihydrochloride]: the IC50 on JAK2 [2] is 400 nM.
With `COCCNC(=O)c1cc2c(=O)n3cccc(C)c3nc2n(Cc2ccco2)c1=N` [Compound 2], the Solubility entry in data set [3] is “solubility problems”.
Turning to `Cc1n[nH]c(C)c1C(=O)CC1(O)C(=O)N(Cc2ccccc2)c2ccccc21` (stereo not shown) [Compound 5], the IC50 on JAK2 [1] (setting [4]) is > 10000 nM.
For `O=C(O)CSc1nnc2n1CCCN2` [Compound 6], the “Cell viability (MTT)” value in the data set on SH-SY5Y cells is given as “significant decrease”. Also, the IC50 at JAK2 [1] (setting [4]) was > 10000 nM.
Consider `O=C1C2C3C=CC(CO)(O3)C2C(=O)N1c1cccc([N+](=O)[O-])c1` (stereo not shown) [Compound 4], for which the IC50 was determined as 807 nM at JAK2 [1] (setting [4]) and 810 nM at JAK2 [1] (setting [5]).
Taken in the same sequence, the figures for `NS(=O)(=O)c1ccc(NC(=O)Cn2cnc3scc(-c4ccco4)c3c2=O)cc1` [Compound 7] were 637 nM and 640 nM.
Consider `CC(=O)c1oc2ccccc2c1N` [Compound 1], for which, at JAK2 [1] (setting [4]), the IC50 is > 10000 nM.
